Laboratory results from the supplement of paper PMC11061612.

Assays:
[1] = tested on: TT (Thyroid Gland Carcinoma); experiment: combination Emax (second highest fraction inhibited in the dose matrix, 72 h); higher = more inhibition; extreme values may be limits of the assay
How it was run: (§1)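 Bliss excess equals the observed combination effect minus the expected value EA + EB − EA·EB, where EA and EB are the effects of each agent alone. Combination Emax is the second-highest inhibition within the matrix. Inhibition was scaled from CellTiter-Glo 2.0 luminescence, with 0 set by vehicle wells and 1 by blank wells, after 72 hours of two-drug dosing of cells plated in 1536-well plates.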

[2] = tested on: COLO-320-HSR (Colorectal Carcinoma); experiment: as above
How it was run: as §1

[3] = tested on: CCK-81 (Colorectal Carcinoma); experiment: as above
How it was run: as §1

IGR-37 (Melanoma) = experiment: as above
How it was run: as §1

[4] = tested on: VCaP (Prostate Carcinoma); experiment: as above
How it was run: as §1

PA-1 (Ovarian Carcinoma) = experiment: as above
How it was run: as §1

[5] = tested on: SISO (Cervical Carcinoma); experiment: as above
How it was run: as §1

[6] = tested on: COLO-824 (Breast Carcinoma); experiment: as above
How it was run: as §1

FU97 (Gastric Carcinoma) = experiment: as above
How it was run: as §1

[7] = tested on: NCI-H1693 (Lung Adenocarcinoma); experiment: as above
How it was run: as §1

LN-405 (Glioblastoma) = experiment: as above
How it was run: as §1

[8] = tested on: CAL-29 (Bladder Carcinoma); experiment: as above
How it was run: as §1

[9] = tested on: COR-L311 (Small Cell Lung Carcinoma); experiment: as above
How it was run: as §1

[10] = tested on: NCI-H2066 (Squamous Cell Lung Carcinoma); experiment: as above
How it was run: as §1

[11] = tested on: NCI-H1581 (Non-Small Cell Lung Carcinoma); experiment: as above
How it was run: as §1

[12] = tested on: MDST8 (Colorectal Carcinoma); experiment: as above
How it was run: as §1

[13] = tested on: KARPAS-422 (B-Cell Non-Hodgkin's Lymphoma); experiment: as above
How it was run: as §1

[14] = tested on: NCI-H2141 (Small Cell Lung Carcinoma); experiment: Bliss excess, mean over the matrix (fraction); higher = more synergy
How it was run: as §1

[15] = tested on: OS-RC-2 (Kidney Carcinoma); experiment: as above
How it was run: as §1

[16] = tested on: PANC-10-05 (Pancreatic Carcinoma); experiment: as above
How it was run: as §1

| SMILES | combination Emax [1] | combination Emax [2] | combination Emax [3] | combination Emax (IGR-37 (Melanoma)) | combination Emax [4] | combination Emax (PA-1 (Ovarian Carcinoma)) | combination Emax [5] | combination Emax [6] | combination Emax (FU97 (Gastric Carcinoma)) | combination Emax [7] | combination Emax (LN-405 (Glioblastoma)) | combination Emax [8] | combination Emax [9] | combination Emax [10] | combination Emax [11] | combination Emax [12] | combination Emax [13] | Bliss excess [14] | Bliss excess [15] | Bliss excess [16] |
| --- | --- | --- | --- | --- | --- | --- | --- | --- | --- | --- | --- | --- | --- | --- | --- | --- | --- | --- | --- | --- |
| COc1cccc(OCCCN)c1-c1cc(Nc2cnc(C#N)cn2)n[nH]1 [Prexasertib] + O=C(c1cc(Cc2n[nH]c(=O)c3ccccc23)ccc1F)N1CCN(C(=O)C2CC2)CC1 [Olaparib] (first compound max 1 µM, 7x7, partner max 10 µM) | 0.59 | 0.522 | 0.841 | 0.961 | 0.797 | 0.706 | 0.803 | 0.77 | 0.299 | 0.357 | 0.592 | 0.714 | 0.803 | 0.316 | 0.563 | 0.937 | 0.92 | -0.0509 | -0.0181 | -0.0424 |
| CN(C)CCCOc1ccc(-c2ccc3ncc4c(c3c2)n(C2CCOCC2)c(=O)n4C)cn1 [AZD0156] + O=C(c1cc(Cc2n[nH]c(=O)c3ccccc23)ccc1F)N1CCN(C(=O)C2CC2)CC1 [Olaparib] (first compound max 3 µM, partner max 3 µM) | 0.237 | 0.301 | 0.394 | 0.194 | 0.296 | 0.479 | 0.303 | 0.383 | 0.422 | 0.248 | 0.182 | 0.319 | 0.393 | 0.215 | 0.412 | 0.361 | 0.56 | 0.0117 | -0.0432 | 0.0378 |
| CN(C)CCCOc1ccc(-c2ccc3ncc4c(c3c2)n(C2CCOCC2)c(=O)n4C)cn1 [AZD0156] + C=CCn1c(=O)c2cnc(Nc3ccc(N4CCN(C)CC4)cc3)nc2n1-c1cccc(C(C)(C)O)n1 [AZD1775] (first compound max 1 µM, partner max 1 µM) | 0.271 | 0.719 | 0.903 | 0.706 | 0.553 | 0.789 | 0.566 | 0.644 | 0.367 | 0.179 | 0.134 | 0.642 | 0.56 | 0.208 | 0.331 | 0.416 | 0.607 | -0.0944 | -0.0652 | -0.0519 |
| CCN(CCO)CCCOc1ccc2c(Nc3cc(CC(=O)Nc4cccc(F)c4)[nH]n3)ncnc2c1 [AZD2811] + C=CCn1c(=O)c2cnc(Nc3ccc(N4CCN(C)CC4)cc3)nc2n1-c1cccc(C(C)(C)O)n1 [AZD1775] (first compound max 1 µM, partner max 1 µM) | 0.365 | 0.631 | 0.849 | 0.737 | 0.558 | 0.767 | 0.568 | 0.813 | 0.219 | 0.225 | 0.199 | 0.633 | 0.592 | 0.203 | 0.688 | 0.465 | 0.569 | -0.0082 | -0.0231 | -0.021 |
| CC1(C)CCC(CN2CCN(c3ccc(C(=O)NS(=O)(=O)c4ccc(NCC5CCOCC5)c([N+](=O)[O-])c4)c(Oc4cnc5[nH]ccc5c4)c3)CC2)=C(c2ccc(Cl)cc2)C1 [Venetoclax] + C[C@@H](Nc1cc(F)cc(F)c1)c1cc(C(=O)N(C)C)cc2c(=O)cc(N3CCOCC3)oc12 [AZD8186] (first compound max 1 µM, 7x7, partner max 3 µM) | 0.531 | 0.135 | 0.0792 | 0.46 | 0.188 | 0.682 | 0.11 | 0.921 | 0.329 | 0.129 | 0.335 | 0.113 | 0.768 | 0.215 | 0.182 | 0.0955 | 0.98 | 0.0074 | -0.0629 | -0.0542 |
| COc1nnc2ccc(N3CCC(c4ccc(OCCN5CCN(C)C(=O)[C@H]5C)cc4)CC3)nn12 [AZD5153] + CCN(CCO)CCCOc1ccc2c(Nc3cc(CC(=O)Nc4cccc(F)c4)[nH]n3)ncnc2c1 [AZD2811] (first compound max 1 µM, 7x7, partner max 1 µM) | 0.692 | 0.503 | 0.858 | 0.597 | 0.789 | 0.904 | 0.486 | 0.845 | 0.766 | 0.46 | 0.515 | 0.372 | 0.936 | 0.344 | 0.437 | 0.466 | 0.676 | 0.0226 | -0.0473 | -0.0713 |
| C[C@@H](c1ccc2nccn2c1)n1nnc2ncc(-c3cnn(C)c3)nc21 [Savolitinib] + Cc1c2c(nn1C)CSCc1cc(n(C)n1)CSc1cc(c3ccccc3c1)OCCCc1c(C(=O)O)n(C)c3c-2c(Cl)ccc13 [AZD5991] (first compound max 1 µM, 7x7, partner max 1 µM) | 0.244 | 0.779 | 0.678 | 0.279 | 0.946 | 0.885 | 0.0507 | 0.356 | 0.164 | 0.108 | 0.256 | 0.186 | 0.246 | 0.169 | 0.951 | 0.159 | 0.961 | -0.0107 | -0.0561 | -0.0994 |
